Laboratory results reported in patent US20220378809A1, “SYNTHETIC COMPOSITION FOR BALANCING THE BILE ACID PROFILE IN THE INTESTINE” (GLYCOM A/S, priority 2019, published 2022).

Tests used:
colonic microbiota = assay: In vitro intestinal system simulating the colon of a human infected with C. difficile, after Vancomycin treatment; conditions: end of washout period
Text: An in vitro intestinal system is used to simulate the colon region in a human infected with C. difficile. The system is inoculated with fresh faecal samples from a healthy individual aged >65 years. The system is run for two weeks as a set up period to stabilise the system. The system is fed daily with a feed solution and with bile acids (primarily taurocholic acid and glycocholic acid). Afterwards, two different interventions are run in parallel for 4 weeks. • Intervention: daily addition of 2′-FL and LNnT (ratio 4:1 by weight) plus an antibiotic (Vancomycin) for seven days, followed by 2′-FL and LNnT (ratio 4:1 by weight) without antibiotic for the next 3 weeks (wash out period), • Control: an antibiotic (Vancomycin) for seven days, followed by no intervention for the next 3 weeks (wash out period). During the antibiotic treatment and washout periods, both the intervention and the control receive the same daily feed including bile acids. At three time points (end of set up period, end of antibiotic treatment, and end of wash out period), the microbiota community and bile acids are measured using 16S sequencing and HPLC-UV method, respectively. The in vitro intestinal system is run as in example 1 except that the intervention is a daily addition of 2′-FL plus an antibiotic (Vancomycin) for seven days, followed by 2′-FL alone for the next 3 weeks (wash out period). The control is as in example b 1. • Control: an antibiotic (Vancomycin) for seven days, followed by no intervention for the next 3 weeks (wash out period).

intestinal cells = conditions: cited from earlier work
[1] = test system: dextran sodium sulphate-induced colitis; conditions: mice; daily oral administration; cited from earlier work

2′-fucosyllactose [2′-FL]
colonic bile acid metabolism (colonic microbiota): re-established | restoration of the microbiota (colonic microbiota; 16S sequencing): restored | secondary bile acids (colonic microbiota; HPLC-UV): presence of the secondary bile acid deoxycholic acid (DCA) | primary bile acids (cholic acid (CA) and glyco-chenodeoxycholic acid (GCDCA)) (colonic microbiota; HPLC-UV, versus Vancomycin-only control): decrease in primary bile acids

C[C@H](CCC(=O)O)[C@H]1CC[C@H]2[C@@H]3[C@H](O)C[C@@H]4C[C@H](O)CC[C@]4(C)[C@H]3CC[C@]12C [CDCA, chenodeoxycholic acid]
permeability of intestinal cells (intestinal cells): increased the permeability | release of proinflammatory cytokines (intestinal cells): increased

C[C@H](CCC(=O)NCCS(=O)(=O)O)[C@H]1CC[C@H]2[C@@H]3[C@@H](O)C[C@@H]4C[C@H](O)CC[C@]4(C)[C@H]3CC[C@]12C [TUDCA, tauroursodeoxycholic acid]
severity of dextran sodium sulphate-induced colitis [1]: equally lowered the severity

C[C@H](CCC(=O)NCC(=O)O)[C@H]1CC[C@H]2[C@@H]3[C@@H](O)C[C@@H]4C[C@H](O)CC[C@]4(C)[C@H]3CC[C@]12C [GUDCA, glycoursodeoxycholic acid]
severity of dextran sodium sulphate-induced colitis [1]: equally lowered the severity
